Measurements reported in patent US20230149303A1, “BUCCAL AND ENTERIC DELIVERY OF FATTY ACIDS IN FOODS AND BEVERAGES” (priority 2020, published 2023).
Read-outs that look alike come from different tables or passages of the source.

Tests used:
CB2 receptors = assay: estimated affinity relative to CBD; type: binding
Excerpt: Because CB2 receptors have a low affinity for CBD, large doses of CBD have increasingly advantageous pharmacological effects. However, CBD is relatively expensive, so the ratio of CBD to other components is more prone to cost/efficacy trade-offs than other components of the formulation. Alternatives can skimp on CBD and even drop the ratio of CBD-to-caffeine below the recommended 1:1 ratio, which should have acceptable effects so long as the caffeine is not in such a high dosage that it causes jitters.
A greater proportion of CBD may be desirable for the purpose of binding to theorized CBD3 receptors or other presently poorly defined receptors with less affinity for CBD. A high dose of CBD, over 100 mg up to less than 250 mg can have a sedative effect that may be effective for certain individuals, though it is unlikely desirable to reach 250 mg, which is approaching the liver enzyme inhibition dose. Although, currently marketed energy drinks have as much as 250 mg caffeine, it would be difficult to fit that much caffeine into a nurdle while maintaining a 1:1 ratio of CBD-to-caffeine (not to mention the 1:2 ratio of caffeine-to-theanine), so the upper ranges of CBD become largely irrelevant in this particular product due to volumetric constraints. […]

[1] = cited from earlier work
TrpV1 receptor = target: T1, TrpV1 receptor (Homo sapiens, UniProt Q8NER1); conditions: absorbed through mucosa; cited from earlier work
T1 construct: It typically takes over 20 minutes for CBD absorbed through mucosa to provide significant pain relief; from tissue; host or cells: oral mucosa / body of the user (in vivo)
T1 sequence (Q8NER1 whole entry): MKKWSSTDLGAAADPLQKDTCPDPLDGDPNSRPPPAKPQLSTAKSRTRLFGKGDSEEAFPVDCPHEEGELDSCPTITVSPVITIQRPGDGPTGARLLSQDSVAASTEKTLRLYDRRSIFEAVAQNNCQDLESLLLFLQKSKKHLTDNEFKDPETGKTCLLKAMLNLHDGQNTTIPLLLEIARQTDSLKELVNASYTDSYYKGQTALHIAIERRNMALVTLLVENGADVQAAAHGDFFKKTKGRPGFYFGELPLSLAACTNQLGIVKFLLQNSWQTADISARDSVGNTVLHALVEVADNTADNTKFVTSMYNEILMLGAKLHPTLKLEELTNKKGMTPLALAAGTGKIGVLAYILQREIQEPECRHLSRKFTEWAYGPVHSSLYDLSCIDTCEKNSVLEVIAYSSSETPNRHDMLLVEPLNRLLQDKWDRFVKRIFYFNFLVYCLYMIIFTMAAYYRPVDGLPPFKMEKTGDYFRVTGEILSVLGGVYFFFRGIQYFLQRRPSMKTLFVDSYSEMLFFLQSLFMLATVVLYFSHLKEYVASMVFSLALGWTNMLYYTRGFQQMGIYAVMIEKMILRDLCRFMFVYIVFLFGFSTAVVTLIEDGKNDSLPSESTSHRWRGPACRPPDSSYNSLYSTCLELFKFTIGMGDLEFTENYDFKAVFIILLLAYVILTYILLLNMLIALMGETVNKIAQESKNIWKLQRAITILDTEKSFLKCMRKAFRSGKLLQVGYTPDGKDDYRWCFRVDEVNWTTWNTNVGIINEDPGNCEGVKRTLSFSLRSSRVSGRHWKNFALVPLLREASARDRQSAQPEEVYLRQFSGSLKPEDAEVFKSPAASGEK

[2] = bioavailability after oral, mucosal/buccal or enteric delivery; type: in vivo
Description: B6 helps the body produce neurotransmitters (e.g., serotonin); it can block glutamate and help the brain learn to calm. […] B6 can also be delivered enterically with nearly 100% bioavailability, as well.
In a specific implementation, microencapsulated CBD is provided as an analgesic in an edible toothpaste. In this specific implementation, 20 mg of the CBD is microencapsulated for buccal delivery to act as a localized analgesic in the mouth. CBD is degraded in the stomach but, as was discussed above, CBD is readily absorbed in mucosa. Although it is recognized not all patients will follow best practices, bioavailability estimates assume the amount of time spent brushing is 2 minutes, which is the time span over which the edible toothpaste remains in the mouth and which is long enough to make almost all of CBD formulated for buccal delivery bioavailable. Accordingly, when the product is used as directed, the CBD remains in the mouth long enough to achieve over 90% bioavailability. Thus, the amount of buccally delivered CBD can be added to that of enterically delivered CBD to determine a total systemic dose.
As with the edible toothpaste described above, a first portion of the CBD is formulated for buccal delivery and a second portion of the CBD is formulated for enteric delivery. […] CBD is degraded in the stomach but, as was discussed above, CBD is readily absorbed in mucosa. […]

[3] = in vivo; cited from earlier work
[4] = mucosal quick release, retained in the mouth for several seconds; cited from earlier work

With 2-Lineoleoyl-glycerol as the molecule, how does the “affinity relative to CBD” value (CB2 receptors) read?
The value was ~1,000 times.

With 2-Palmitolyl-glycerol as the molecule, how does the “affinity relative to CBD” value (CB2 receptors) read?
Its value is ~1,000 times.

For `C=C(C)[C@@H]1CCC(C)=C[C@H]1c1c(O)cc(CCCCC)cc1O` [CBD], which “half-life in the bloodstream” value ([1]; frequent user) is on record?
Its value is 120 to 312 h.

And the “half-life in the bloodstream” value ([1]; infrequent user)?
Its value is “about 1.3 days”.

What about the “time to provide significant pain relief” value (TrpV1 receptor) of the same molecule?
The value was “over 20 minutes”.

What about the bioavailability ([2]; buccal delivery from edible toothpaste, estimate assumes 2 minutes brushing) of the same molecule?
Its bioavailability is “over 90%”.

What about the bioavailability ([2]; buccal delivery from mouthwash, estimate assumes 30 seconds to one minute in the mouth) of the same molecule?
Its bioavailability is “over 90%”.

For `CC1CCC(C(C)C)C(O)C1` (stereo not drawn) [menthol], which lethal dose [3] is on record?
The lethal dose was no less than 50 mg/kg.

For `CCCCCCCCCCCCCCCC(=O)OCc1cnc(C)c(OC(=O)CCCCCCCCCCCCCCC)c1COC(=O)CCCCCCCCCCCCCCC` [pyridoxine tripalmitate], which bioavailable [4] is on record?
The bioavailable was “over 90%”.
